# According to PubChem BioAssay AID624491 (Broad Institute, 2012):
# Calls of active or inactive are those of the source.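 Rule for the calls: active = fitted curve crossing a set activation limit at or below the highest valid dose tested; inconclusive = flat fit at 30 to 70% activation, or poor fit; inactive = the rest, including signal decreases.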
# Tested on: D54 ERlucT glycosylation luciferase reporter, luminescence, 24 h
# Assay: blockers of NLG process in reporter cells – D54 ERlucT cells, luminescence, cherry-picks, dose response (AID 624491);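 note: signal gain reflects blocked N-linked glycosylation of a luciferase reporter; actives raise luciferase signal so AC26 marks activators of the reporter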
row,Compound,AC26
1,Cc1nc(SCC(=O)Nc2ccc(F)cc2)c(C#N)c(C)c1CC(=O)c1ccc(Br)cc1,1660 nM
2,CCn1c2ccccc2c2cc(NC(=O)c3cc(OC)c(OC)c(OC)c3)ccc21,605 nM
3,COC(=O)C1=C(c2cc3ccccc3o2)C[C@@H]2CC[C@H]1N2C(=O)N1CCOCC1,> 19500 nM (inactive)
4,CC(NC(=O)c1cccc2ccccc12)c1ccc2c(c1)CCCC2 (stereo unspecified),6480 nM
5,CN(C)C(CNC(=O)CSc1nc2sc3c(c2c(=O)n1C)CCCC3)c1ccccc1 (stereo unspecified),387 nM
6,CCN1C(=O)c2cccc3c(S(=O)(=O)N4CCC(C)CC4)ccc1c23,1720 nM
7,COc1ccc(-c2cc3ccccc3oc2=O)cc1NC(=O)c1ccc([N+](=O)[O-])o1,751 nM
8,O=C(NCCN1C(=O)S/C(=C\c2ccccc2Cl)C1=O)C1=COCCO1,7850 nM
9,Cc1cc2nnc(SCC(=O)NCc3ccco3)n2c2ccccc12,1360 nM
10,Cn1c(=O)[nH]c(=O)c2c1nc(NN)n2CCOc1ccccc1,2570 nM
11,O=C(N/N=C/c1ccc(F)cc1)c1sccc1OCc1ccc(F)cc1,1630 nM
12,NC(=O)CC(NC(=O)Cc1ccc(Cl)cc1)c1ccc(NC2CCN(Cc3ccccc3)CC2)c([N+](=O)[O-])c1 (stereo unspecified),480 nM
13,CCOC(=O)C(CC)(CC)C(=O)/C=C/c1cccc(Br)c1,517 nM
14,O=C(c1ccc(CS(=O)c2ccccc2Cl)o1)N1CCN(c2ccccn2)CC1 (stereo unspecified),5990 nM
15,Nc1nc(-c2ccccc2)cc(N2CCCCC2)n1,4270 nM
16,COc1ccccc1-c1cc(NC=O)c2ncc(-c3cccc(C(=O)N(C)C)c3)n2c1,4020 nM
17,O=C(CCl)Nc1cn(-c2ccccc2)nc1-c1ccc(F)cc1,3860 nM
18,COC(=O)CNC(c1ccccc1)c1cc(Br)ccc1NC(=O)CCN1CCOCC1 (stereo unspecified),4810 nM
19,Cn1cccc1/C=C1\C(=O)NC(=O)N(Cc2ccccc2Cl)C1=O,2490 nM
20,Cc1cc(-n2c(C)cc(C(=O)CCl)c2C)no1,2160 nM
21,COc1ccc2c(c1)c(C(=O)N/N=C/c1ccc(Br)cc1)c(C)n2C,17100 nM
22,COc1cc(NC(=O)c2ccccc2F)ccc1NC(=O)c1cc2ccccc2o1,2390 nM
23,Nc1[nH]nc2nc(NCc3ccccc3)c3c(c12)CCN(Cc1ccccc1)C3,1030 nM
24,COc1ccc(C(=O)/C=C/c2ccc(OC)c(O)c2)c(F)c1,4860 nM
25,COc1ccc(C2=NOC(C(=O)NCc3ccc(F)cc3)C2)cc1 (stereo unspecified),516 nM
26,CC(=O)c1cccc(Nc2cc(C)nc3c(C)cc(C)cc23)c1,4210 nM

row,Compound,AC26
1,O=C(c1cccs1)N1CCC(c2nc3c(nnn3Cc3cccc(Cl)c3)c(=O)[nH]2)CC1,217 nM
2,NC(=O)/C=C/C(=O)Nc1ccc(Cl)cc1,15100 nM
3,COc1ccc(F)cc1-c1cc(NC(C)=O)c2ncc(-c3cc(OC)c(OC)c(OC)c3)n2c1,11300 nM
4,O=S(=O)([N-]c1nc2ccccc2nc1-n1cc[n+](Cc2ccccc2)c1)c1ccc(Cl)cc1,101 nM
5,CC1(C(=O)NCc2ccco2)Cc2c(-c3cccc(C(F)(F)F)c3)ccnc2O1 (stereo unspecified),7710 nM
6,C#CCCOC(=O)N1C2=NC(C(=O)OC)=C(C(=O)OC)[C@@H]3N(C)c4ccccc4[C@]23C[C@H]1C(=O)OC,479 nM
7,Cc1ccc2c(c1)C(=O)N1[C@H]3c4cc(C)ccc4OC[C@@H]3[C@H](c3ccccc3)[C@]1(C)C(=O)N2,26.4 nM
8,Cc1cccn2c(=O)c3cc(C(=O)NC4CCCC4)c(=N)n(CC4CCCO4)c3nc12 (stereo unspecified),8180 nM
9,COc1ccc(CCCNC(=O)C2Cc3c(-c4cccc(C(C)=O)c4)ccnc3O2)cc1 (stereo unspecified),12600 nM
10,CC(=O)NC(c1cccc(F)c1)c1nc(-c2ccccc2C)cs1 (stereo unspecified),502 nM
11,Cc1ccc(NC(=O)CSc2nnc(-c3ccco3)c(-c3ccco3)n2)cc1,1240 nM
12,CCC1=Nc2cc(C(=O)NCCCOC)ccc2Sc2ccccc21,422 nM
13,COc1ccc(-c2cc(C)no2)cc1S(=O)(=O)Nc1ccccc1,3740 nM
14,CC[C@H](C)C(=O)O[C@H]1C[C@@H](C)C=C2C=C[C@H](C)[C@H](CC[C@@H]3C[C@@H](O)CC(=O)O3)[C@H]21,301 nM
15,COc1ccc(S(=O)(=O)N2CCCOC2CNC(=O)C(=O)NCCc2ccco2)cc1C (stereo unspecified),9490 nM
16,Nc1nc(-c2ccccc2)cc(-c2ccccc2O)n1,4980 nM
17,CC(=O)Nc1cccc(-c2ccnc3c2CC(C)(C(=O)NCC2CC2)O3)c1 (stereo unspecified),5110 nM
18,CCCCNC(=O)c1cc(-c2ccc(F)cc2)on1,3450 nM
19,NS(=O)(=O)c1ccc(NC(=O)c2cccc3cc4ccccc4nc23)cc1,1320 nM
20,Cc1nc2c3cc(F)ccc3n(Cc3ccc(F)cc3)c2s1,11500 nM
21,COC(=O)c1ccccc1NC(=O)Cn1c(-c2nonc2N)nc2ccccc21,120 nM
22,O=C(CN1CCC(O)(c2cccc(F)c2)CC1)NCCc1c[nH]c2ccccc12,1150 nM
23,O=C(Nc1ncccc1O)c1ccc(S(=O)(=O)Nc2ccccc2)cc1,2190 nM
24,Cc1cccn2c(=O)c3cc(C(=O)NC4CCCC4)c(=N)n(CCc4ccccc4)c3nc12,1280 nM
25,COc1cc(NC(=O)c2ccccc2OCc2ccccc2)cc(OC)c1OC,1030 nM
26,O=C(CCl)N1CCCC1c1ccc2c(c1)OCCO2 (stereo unspecified),608 nM

row,Compound,AC26
1,O=S(=O)([N-]c1nc2ccccc2nc1-n1cc[n+](Cc2ccccc2)c1)c1ccccc1,520 nM
2,Cc1cc(C)nc(/N=C(\N)Nc2ccc(OCc3ccccc3)cc2)n1,8.88 nM
3,Nc1sc(-c2ccccc2)cc1-c1n[nH]c(=S)n1C1CCCCC1,10700 nM
4,COc1ccc([C@@H]2[C@@H]3C(=O)N(C(C)(C)C)C(=O)[C@@H]3[C@]3(Cc4ccccc4)C(=O)N(c4cccc(Cl)c4)C(=O)N23)cc1,2990 nM
5,COc1c(Br)cc(Br)cc1/C=N/NC(=O)c1cccnc1,10200 nM
6,O=c1[nH]c(CSc2ncnc3sc(-c4ccccc4)cc23)nc2ccccc12,4470 nM
7,c1ccc(CN2CCC(Nc3nc(-c4cccnc4)nc4ccccc34)CC2)cc1,6130 nM
8,Cc1ccc(C(=O)NC(=C(Cl)Cl)S(=O)(=O)c2ccc(Cl)cc2)cc1,3660 nM
9,O=C(Nc1ccccc1)N(CCN1CCOCC1)Cc1ccccc1F,1360 nM
10,CNc1ncnc(Sc2ccc(Cl)cc2)c1[N+](=O)[O-],4540 nM
11,COc1ccc(OC)c(Nc2nc(-c3c(C)nc4ncccn34)cs2)c1,2730 nM
12,C[C@@]12C(=O)Nc3ccc(F)cc3C(=O)N1[C@H]1c3cc(Cl)ccc3OC[C@@H]1[C@@H]2c1ccccc1,1070 nM
13,Cc1ccc(N2C(=O)NC(=O)/C(=C\C=C\c3ccco3)C2=O)cc1C,875 nM
14,COc1ccc(CNC(=O)c2cccc3c(-c4cccc(C(N)=O)c4)coc23)cc1OC,663 nM
15,CC#CCN1c2ccccc2[C@]23C[C@@H](C(=O)OC)N(C(=O)c4cc(C)oc4C)C2=NC(C(=O)OC)=C(C(=O)OC)[C@H]13,1790 nM
16,COc1ccc(Cl)cc1NC(=O)Nc1ccc(C(=O)N2CCCC2)cc1,4030 nM
17,CCOCCCNC(=O)c1cc2c(=O)n(CC)c3ccccc3c2s1,8290 nM
18,COc1ccc(C(=O)c2cc(OC)c(OC)c(OC)c2)cc1OC,1250 nM
19,COc1ccccc1C(=O)Nc1nnc(CCc2ccccc2)s1,3720 nM
20,Cc1c(C(=O)OCC(C)C)[nH]c2c1C(=O)CC(c1cccs1)C2 (stereo unspecified),1170 nM
21,COc1ccc2nc3ccccc3nc2c1NC(=O)c1ccccc1Cl,11400 nM
22,O=C(N/N=C\c1ccc(CNS(=O)(=O)c2ccc(Cl)cc2)o1)C(=O)Nc1ccc(Oc2ccccc2)cc1,4890 nM
23,O=C(COc1ccccc1)Nc1cccc(-c2cn3cccnc3n2)c1,5880 nM
24,COc1ccccc1NC(=O)/C=C/c1ccc2c(c1)OCO2,3780 nM
